From patent US20260176319A1, “PEPTIDE ANALOGS AND METHODS OF USING THE SAME” (Kallyope, Inc., priority 2024, published 2026)
Where two headings read alike, the source gives them in different places. Starred links: 1 amine or outer side, 2 acyl side, 3 side chain; linkers in the order of their positions; H or OH if unused. Non-standard residues stand in square brackets, D forms with d. Residues, ends and D or L forms follow the SMILES beside them. *: point of attachment. Trp(7-Me) = Cc1cccc2c(C[C@H](N)C(=O)O)c[nH]c12; C20 diacid = O=C(O)CCCCCCCCCCCCCCCCCCC(=O)*; d(γGlu) = O=C(O)[C@@H](CCC(=O)[*:2])N[*:1]; C18 diacid = O=C(O)CCCCCCCCCCCCCCCCC(=O)*; γGlu = O=C(O)[C@H](CCC(=O)[*:2])N[*:1]; 2Nal = N[C@@H](Cc1ccc2ccccc2c1)C(=O)O; X1 = O=C(CC1(N[*:1])CCC1)[*:2]; Nle = CCCC[C@H](N)C(=O)O; β3hA = C[C@H](N)CC(=O)O; AEEA = NCCOCCOCC(=O)O; βAla = NCCC(=O)O; Sar = CNCC(=O)O

Key:
[1] = Pharmacokinetics after intravenous peptide administration in mice; parameters: species or system C57BL/6 mice; details: in vivo
Protocol: GPR-10 and peptides were dosed IV at 2 mg/kg as a formulation of 0.4 mg/mL in […]+65% water (pH 6-7).

human GRP receptors = target: T1, human GRP receptors (Homo sapiens, UniProt P30550); experiment: IP1 GRPR activity: HTRF IP1-Gq assay in U2OS cells stably expressing human GRP receptors; assay type: cell-based; details: 90 minutes incubation, read-out: hIP1 GRPR EC50
T1 construct: host or cells: U2OS
T1 sequence (P30550 whole entry): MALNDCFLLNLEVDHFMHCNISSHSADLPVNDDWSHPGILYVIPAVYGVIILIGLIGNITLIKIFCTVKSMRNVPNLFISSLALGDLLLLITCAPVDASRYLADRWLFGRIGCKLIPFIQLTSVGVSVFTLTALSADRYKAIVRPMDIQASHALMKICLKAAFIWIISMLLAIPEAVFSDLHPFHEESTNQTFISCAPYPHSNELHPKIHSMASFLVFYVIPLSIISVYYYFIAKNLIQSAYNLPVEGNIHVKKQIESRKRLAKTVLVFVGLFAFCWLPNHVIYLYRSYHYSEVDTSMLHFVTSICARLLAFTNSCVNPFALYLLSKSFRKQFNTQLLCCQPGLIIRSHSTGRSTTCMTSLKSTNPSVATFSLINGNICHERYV
Protocol: U2OS cells stably expressing human GRP receptors (DiscoverX, #93-0229C3) were cultured according to manufacturer's instructions. Cells were cultured to […], then collected using AccuTase (Innovative Cell Technologies, #AT104). Cells were washed and plated on a poly-D-lysine-coated 384-well plate (ThermoFisher, #A3890401) at a density of 2,500 cells/well in […] assay buffer (AssayComplete Cell Plating 5 Reagent, DiscoverX #93-0563R5), then incubated overnight at 37° C. and 5% C02. The following morning, a homogenous time-resolved fluorescence (HTRF) assay was performed in a 384-well plate format using the IP1-Gq assay kit (Cisbio, 62IPAPEB). Test compounds were made as a stock in DMSO, then serially diluted to generate 10-point dose response curves in IP1 stimulation buffer. Five microliters of the prepared compounds were then added to the plate containing cells and assay buffer in duplicate, and the cells were incubated at 37° C. and 5% CO2 for 90 minutes. Following compound incubation, […] of IP1 lysis/detection buffer (prepared according to manufacturer's instructions) was added to each well, and the plates were incubated at room temperature for 1 hour. HTRF signals were measured using a plate reader (ClarioSTAR), calculating the ratio between emissions at 665 nm and 620 nm (HTRF ratio). HTRF ratio for positive (Max, […]; SEQ ID NO. 45) and negative (Min, DMSO) controls were used to normalize HTRF data and generate values for % activity. EC50 and Max activity values were determined using a standard 4-parameter fit using GraphPad Prism.

[2] = mouse, C57BL/6 mice, IV 2 mg/kg, formulation of 0.4 mg/mL, read-out: CL
[3] = mouse, C57BL/6 mice, IV 2 mg/kg, formulation of 0.4 mg/mL, read-out: T1/2 (converted)

Work on `CCCC[C@H](NC(=O)[C@H](CC(C)C)NC(=O)[C@H](Cc1c[nH]cn1)NC(=O)CCNC(=O)[C@@H](NC(=O)[C@H](C)NC(=O)[C@H](Cc1c[nH]c2c(C)cccc12)NC(=O)[C@H](Cc1c[nH]cn1)NC(=O)[C@H](CCC(=O)O)NC(=O)CNC(=O)[C@H](CO)NC(=O)COCCOCCNC(=O)COCCOCCNC(=O)CC[C@H](NC(=O)CC[C@H](NC(=O)CCCCCCCCCCCCCCCCCCC(=O)O)C(=O)O)C(=O)O)C(C)C)C(N)=O` [Peptide 255, Eicosanedioyl-γGlu-Glu-OEG-OEG-Ser-Gly-Glu-His-7MeTrp-Ala-Val-β-Ala-His-Leu-Nle-NH2] ({C20 diacid-γGlu-γGlu-AEEA-AEEA}-SGEH[Trp(7-Me)]AV[βAla]HL[Nle]-NH2) yielded a clearance [1, 2] of 0.09 mL/min/kg, a half-life [1, 3] of 9.4 h and an EC50 (human GRP receptors) of 6.9 nM.
With `CCCC[C@H](NC(=O)[C@H](CC(C)C)NC(=O)[C@H](Cc1c[nH]cn1)NC(=O)[C@@H](C)NC(=O)[C@@H](NC(=O)[C@H](C)NC(=O)[C@H](Cc1c[nH]c2ccccc12)NC(=O)[C@H](Cc1c[nH]cn1)NC(=O)[C@H](CC(N)=O)NC(=O)CN)C(C)C)C(N)=O` [Peptide 6, Gly-Asn-His-Trp-Ala-Val-D-Ala-His-Leu-Nle-NH2] the half-life [1, 3] was < 0.1 h.
`CSCC[C@H](NC(=O)[C@H](CC(C)C)NC(=O)[C@H](Cc1cnc[nH]1)NC(=O)CNC(=O)[C@@H](NC(=O)[C@H](C)NC(=O)[C@H](Cc1c[nH]c2ccccc12)NC(=O)[C@H](Cc1cnc[nH]1)NC(=O)[C@H](CC(N)=O)NC(=O)CN)C(C)C)C(N)=O` [GRP10, G-N-H-W-A-V-G-H-L-M-NH2, reference compound] showed a clearance ([1]; C57BL/6, mouse, iv, 2 mg/kg) of 4540 mL/min/kg and a half-life ([1]; C57BL/6, mouse, iv, 2 mg/kg) of 0.3 h.
With `CCCCCCCCCCCCCCCC(=O)N[C@H](CCC(=O)NCCOCCOCC(=O)NCCOCCOCC(=O)NCC(=O)N[C@@H](CC(N)=O)C(=O)N[C@@H](Cc1c[nH]cn1)C(=O)N[C@@H](Cc1c[nH]c2ccccc12)C(=O)N[C@@H](C)C(=O)N[C@H](C(=O)NCC(=O)N[C@@H](Cc1c[nH]cn1)C(=O)N[C@@H](CC(C)C)C(=O)N[C@@H](CCSC)C(N)=O)C(C)C)C(=O)O` [Peptide 8, Palmitoyl-D-γGlu-OEG-OEG-Gly-Asn-His-Trp-Ala-Val-Gly-His-Leu-Met-NH2] the clearance [1, 2] was 1.2 mL/min/kg and the half-life [1, 3] was 2 h.
Work on `CCCC[C@H](NC(=O)[C@H](CC(C)C)NC(=O)[C@H](Cc1c[nH]cn1)NC(=O)CCNC(=O)[C@@H](NC(=O)[C@H](C)NC(=O)[C@H](Cc1c[nH]c2c(C)cccc12)NC(=O)[C@H](Cc1c[nH]cn1)NC(=O)[C@H](CCC(N)=O)NC(=O)[C@H](CO)NC(=O)[C@H](CCC(=O)O)NC(=O)COCCOCCNC(=O)COCCOCCNC(=O)CC[C@H](NC(=O)CC[C@H](NC(=O)CCCCCCCCCCCCCCCCCCC(=O)O)C(=O)O)C(=O)O)C(C)C)C(N)=O` [Peptide 257, Eicosanedioyl-γGlu-γGlu-OEG-OEG-Glu-Ser-Gln-His-7MeTrp-Ala-Val-β-Ala-His-Leu-Nle-NH2] ({C20 diacid-γGlu-γGlu-AEEA-AEEA}-ESQH[Trp(7-Me)]AV[βAla]HL[Nle]-NH2) yielded a clearance [1, 2] of 0.09 mL/min/kg and a half-life [1, 3] of 9.4 h.
In the case of `CCCC[C@H](NC(=O)[C@H](CC(C)C)NC(=O)[C@H](Cc1c[nH]cn1)NC(=O)C[C@H](C)NC(=O)[C@@H](NC(=O)[C@H](C)NC(=O)[C@H](Cc1c[nH]c2c(C)cccc12)NC(=O)[C@H](Cc1c[nH]cn1)NC(=O)[C@H](CC(N)=O)NC(=O)CNC(=O)COCCOCCNC(=O)COCCOCCNC(=O)CC[C@H](NC(=O)CC[C@H](NC(=O)CCCCCCCCCCCCCCCCCCC(=O)O)C(=O)O)C(=O)O)C(C)C)C(N)=O` [Peptide 258, Eicosanedioyl-γGlu-γGlu-OEG-OEG-Gly-Asn-His-7MeTrp-Ala-Val-BABA-His-Leu-Nle-NH2] ({C20 diacid-γGlu-γGlu-AEEA-AEEA}-GNH[Trp(7-Me)]AV[β3hA]HL[Nle]-NH2), the EC50 (human GRP receptors) is reported as 6 nM.
For `CCCC[C@H](NC(=O)[C@H](CC(C)C)NC(=O)[C@H](Cc1c[nH]cn1)NC(=O)[C@@H](C)NC(=O)[C@@H](NC(=O)[C@H](C)NC(=O)[C@H](CCCNC(=N)N)NC(=O)[C@H](Cc1c[nH]cn1)NC(=O)[C@H](CC(N)=O)NC(=O)CNC(=O)COCCOCCNC(=O)COCCOCCNC(=O)CC[C@H](NC(=O)CCCCCCCCCCCCCCCCC(=O)O)C(=O)O)C(C)C)C(=O)N(C)CC(N)=O` [Peptide 130, Octadecanedioyl-γGlu-OEG-OEG-Gly-Asn-His-Arg-Ala-Val-D-Ala-His-Leu-Nle-Sar-NH2] ({C18 diacid-γGlu-AEEA-AEEA}-GNHRAV[dA]HL[Nle][Sar]-NH2), the EC50 (human GRP receptors) was > 10000 nM.
`CCCC[C@H](NC(=O)[C@H](CC(C)C)NC(=O)[C@H](Cc1c[nH]cn1)NC(=O)[C@@H](C)NC(=O)[C@@H](NC(=O)[C@H](C)NC(=O)[C@H](Cc1c[nH]c2ccccc12)NC(=O)[C@H](Cc1c[nH]cn1)NC(=O)[C@H](CC(N)=O)NC(=O)CNC(=O)COCCOCCNC(=O)COCCOCCNC(=O)CC[C@@H](NC(=O)CCCCCCCCCCCCCCCCC(=O)O)C(=O)O)C(C)C)C(N)=O` [Peptide 9, Octadecanedioyl-D-γGlu-OEG-OEG-Gly-Asn-His-Trp-Ala-Val-D-Ala-His-Leu-Nle-NH2] ({C18 diacid-d(γGlu)-AEEA-AEEA}-GNHWAV[dA]HL[Nle]-NH2) showed a clearance [1, 2] of 0.5 mL/min/kg and a half-life [1, 3] of 5.7 h.
Work on `CCCC[C@H](NC(=O)[C@H](CC(C)C)NC(=O)[C@H](Cc1c[nH]cn1)NC(=O)CCNC(=O)[C@@H](NC(=O)[C@H](C)NC(=O)[C@H](Cc1c[nH]c2c(C)cccc12)NC(=O)[C@H](Cc1c[nH]cn1)NC(=O)[C@H](CCCNC(=N)N)NC(=O)CNC(=O)[C@H](CCC(=O)O)NC(=O)COCCOCCNC(=O)COCCOCCNC(=O)CC[C@H](NC(=O)CC[C@H](NC(=O)CCCCCCCCCCCCCCCCCCC(=O)O)C(=O)O)C(=O)O)C(C)C)C(N)=O` [Peptide 252, Eicosanedioyl-γGlu-γGlu-OEG-OEG-Glu-Gly-Arg-His-7MeTrp-Ala-Val-β-Ala-His-Leu-Nle-NH2] ({C20 diacid-γGlu-γGlu-AEEA-AEEA}-EGRH[Trp(7-Me)]AV[βAla]HL[Nle]-NH2) yielded a clearance [1, 2] of 0.12 mL/min/kg, a half-life [1, 3] of 6.6 h and an EC50 (human GRP receptors) of 7.5 nM.
In the case of `CCCC[C@H](NC(=O)[C@H](CC(C)C)NC(=O)[C@H](Cc1c[nH]cn1)NC(=O)CC1(NC(=O)[C@@H](NC(=O)[C@H](C)NC(=O)[C@H](Cc2c[nH]c3ccccc23)NC(=O)[C@H](Cc2c[nH]cn2)NC(=O)[C@H](CCC(N)=O)NC(=O)CNC(=O)COCCOCCNC(=O)COCCOCCNC(=O)CC[C@H](NC(=O)CC[C@H](NC(=O)CCCCCCCCCCCCCCCCCCC(=O)O)C(=O)O)C(=O)O)C(C)C)CCC1)C(N)=O` [Peptide 273, Eicosanedioyl-γGlu-Glu-OEG-OEG-Gly-Gln-His-Trp-Ala-Val-ACBA-His-Leu-Nle-NH2] ({C20 diacid-γGlu-γGlu-AEEA-AEEA}-GQHWAV[X1]HL[Nle]-NH2), the EC50 (human GRP receptors) is reported as 12.3 nM.
With `CCCC[C@H](NC(=O)[C@H](CC(C)C)NC(=O)[C@H](Cc1c[nH]cn1)NC(=O)[C@@H](C)NC(=O)[C@@H](NC(=O)[C@H](C)NC(=O)[C@H](Cc1c[nH]cn1)NC(=O)[C@H](Cc1c[nH]cn1)NC(=O)[C@H](CC(N)=O)NC(=O)CNC(=O)COCCOCCNC(=O)COCCOCCNC(=O)CC[C@H](NC(=O)CCCCCCCCCCCCCCCCC(=O)O)C(=O)O)C(C)C)C(N)=O` [Peptide 107, Octadecanedioyl-γGlu-OEG-OEG-Gly-Asn-His-His-Ala-Val-D-Ala-His-Leu-Nle-NH2] ({C18 diacid-γGlu-AEEA-AEEA}-GNHHAV[dA]HL[Nle]-NH2) the EC50 (human GRP receptors) was > 10000 nM.
For `CCCC[C@H](NC(=O)[C@H](CC(C)C)NC(=O)[C@H](Cc1c[nH]cn1)NC(=O)[C@@H](C)NC(=O)[C@@H](NC(=O)[C@H](C)NC(=O)[C@H](Cc1ccc2ccccc2c1)NC(=O)[C@H](Cc1c[nH]cn1)NC(=O)[C@H](CC(N)=O)NC(=O)CNC(=O)COCCOCCNC(=O)COCCOCCNC(=O)CC[C@H](NC(=O)CCCCCCCCCCCCCCCCC(=O)O)C(=O)O)C(C)C)C(=O)N(C)CC(N)=O` [Peptide 99, Octadecanedioyl-γGlu-OEG-OEG-Gly-Asn-His-2Nal-Ala-Val-D-Ala-His-Leu-Nle-Sar-NH2] ({C18 diacid-γGlu-AEEA-AEEA}-GNH[2Nal]AV[dA]HL[Nle][Sar]-NH2), the EC50 (human GRP receptors) was > 10000 nM.
